{"source": "patent US20260076973A1", "about": "(priority 2023, published 2026)", "note": "Where a name gives a salt, the structure may show the parent alone.", "data": [{"system": "SARS-CoV-2 (WA1)", "assay": "microbe, parasite or virus in culture", "assay_type": "cell-based", "settings": "Severe acute respiratory syndrome coronavirus 2, Vero C1008", "units": {"IC50": "nM"}, "values": [{"molecule": "Clc1ccccc1Nc1nc(Nc2ccccc2Cl)nc(N2CCOCC2)n1", "note": "[VIRADEM-14303, N,N^1-bis-(2-chlorophenyl)-6-morpholin-4-yl-[1,3,5]triazine-2,4-diamine]", "IC50": "> 1000"}, {"molecule": "COc1ccc(Nc2nc(Nc3cccc(C)c3)nc(N3CCOCC3)n2)cc1", "note": "[hydrochloride]", "IC50": 230}, {"molecule": "Cc1ccc(Nc2nc(Nc3cccc(C(F)(F)F)c3)nc(N3CCOCC3)n2)cc1C", "note": "[VIRADEM-11914, N-(3,4-Dimethylphenyl)-6-morpholin-4-yl-N^1-(3-trifluoromethylphenyl)-[1,3,5]triazine-2,4-diamine]", "IC50": 130}]}, {"system": "SARS-CoV-2 (WA1)", "assay": "microbe, parasite or virus in culture", "assay_type": "cell-based", "settings": "Severe acute respiratory syndrome coronavirus 2, Vero C1008, VIRADEM compounds, SARS-CoV-2(WA1) CPE assay, Round 2, concentration range 1000-0.05 nM, Vero E6; read-out: IC50", "units": {"IC50": "nM"}, "values": [{"molecule": "c1ccc(Nc2nc(N3CCCC3)nc(N3CCCC3)n2)cc1", "note": "[VIRADEM-11528, (4,6-Dipyrrolidin-1-yl-[1,3,5]triazin-2-yl)-phenylamine hydrochloride]", "IC50": "> 1000"}, {"molecule": "Cc1cccc(Nc2nc(N3CCOCC3)nc(N3CCOCC3)n2)c1", "note": "[VIRADEM-10848, (4,6-Dimorpholin-4-yl-[1,3,5]triazin-2-yl)-m-tolyl-amine hydrochloride]", "IC50": "> 1000"}, {"molecule": "CC(=O)c1cccc(Nc2nc(Nc3ccc(C(C)C)cc3)nc(N3CCOCC3)n2)c1", "note": "[VIRADEM-12305, 1-{3-[4-(4-Isopropylphenylamino)-6-morpholin-4-yl-[1,3,5]triazin-2-ylamino]-phenyl}-ethanone]", "IC50": 450}, {"molecule": "Cc1cccc(N2C(N3CCOCC3)=NC(N)=NC2Nc2ccc(Cl)cc2)c1", "note": "(stereo not drawn) [VIRADEM-11680, N-(4-Chlorophenyl)-6-morpholin-4-yl-N^1-m-tolyl-[1,3,5]triazine-2,4-diamine hydrochloride]", "IC50": "> 1000"}, {"molecule": "CC(C)c1ccc(Nc2nc(N3CCOCC3)nc(N3CCOCC3)n2)cc1", "note": "[VIRADEM-12435, (4,6-Dimorpholin-4-yl-[1,3,5]triazin-2-yl)-(4-isopropylphenyl)-amine]", "IC50": "> 1000"}, {"molecule": "CCCCc1ccc(Nc2nc(N3CCOCC3)nc(N3CCOCC3)n2)cc1", "note": "[VIRADEM-10257, (4-n-Butylphenyl)-(4,6-dimorpholin-4-yl-[1,3,5]triazin-2-yl)-amine hydrochloride]", "IC50": "> 1000"}, {"molecule": "Cc1ccc(Nc2nc(N3CCOCC3)nc(N3CCC(C)CC3)n2)cc1C", "note": "[VIRADEM-15231, (3,4-Dimethylphenyl)-[4-(4-methylpiperidin-1-yl)-6-morpholin-4-yl-[1,3,5]triazin-2-yl]-amine]", "IC50": 350}, {"molecule": "CC(C)(C)c1nnc(N2CCOCC2)nc1Nc1ccccc1", "note": "[VIRADEM-13044, (6-tert-Butyl-3-morpholin-4-yl-[1,2,4]triazin-5-yl)-phenyl-amine]", "IC50": "> 1000"}, {"molecule": "Cc1cc(C)cc(N2C(N3CCCC3)=NC(N)=NC2Nc2cccc(Cl)c2)c1", "note": "(stereo not drawn) [VIRADEM-12278, N-(3-Chlorophenyl)-N^1-(3,5-dimethylphenyl)-6-pyrrolidin-1-yl-[1,3,5]triazine-2,4-diamine hydrochloride]", "IC50": "> 1000"}, {"molecule": "Cc1cccc(N2C(N3CCOCC3)=NC(N)=NC2Nc2cccc(Cl)c2)c1", "note": "(stereo not drawn) [VIRADEM-11781, N-(3-Chlorophenyl)-6-morpholin-4-yl-N^1-m-tolyl-[1,3,5]triazine-2,4-diamine hydrochloride]", "IC50": 110}, {"molecule": "Clc1ccc(Nc2nc(N3CCOCC3)nc(N3CCOCC3)n2)cc1", "note": "[VIRADEM-10894, (4-Chlorophenyl)-(4,6-dimorpholin-4-yl-[1,3,5]triazin-2-yl)-amine hydrochloride]", "IC50": 840}, {"molecule": "CC(=O)c1cccc(Nc2nc(Nc3cccc(Cl)c3)nc(N3CCOCC3)n2)c1", "note": "[VIRADEM-12188, 1-{3-[4-(3-Chlorophenylamino)-6-morpholin-4-yl-[1,3,5]triazin-2-ylamino]-phenyl}-ethanone]", "IC50": 320}, {"molecule": "CCOc1cccc(N2C(N3CCCC3)=NC(N)=NC2Nc2ccc(C)c(C)c2)c1", "note": "(stereo not drawn) [VIRADEM-12185, N-(3,4-Dimethylphenyl)-N^1-(3-ethoxyphenyl)-6-pyrrolidin-1-yl-[1,3,5]triazine-2,4-diamine hydrochloride]", "IC50": "> 1000"}, {"molecule": "COC(=O)c1ccc(Nc2nc(Nc3cccc(OC)c3)nc(N3CCOCC3)n2)cc1", "note": "[VIRADEM-12329, 4-[4-(3-Methoxyphenylamino)-6-morpholin-4-yl-[1,3,5]triazin-2-ylamino]-benzoic acid methyl ester]", "IC50": 20}, {"molecule": "CCc1ccc(Nc2nc(Nc3cc(Cl)cc(Cl)c3)nc(N3CCOCC3)n2)cc1", "note": "[VIRADEM-12327, N-(3,5-Dichlorophenyl)-N^1-(4-ethylphenyl)-6-morpholin-4-yl-[1,3,5]triazine-2,4-diamine]", "IC50": 730}, {"molecule": "Cc1ccc(Nc2nc(N3CCCCCC3)nc(N3CCOCC3)n2)cc1", "note": "[VIRADEM-15229, (4-Azepan-1-yl-6-morpholin-4-yl-[1,3,5]triazin-2-yl)-p-tolyl-amine]", "IC50": 850}, {"molecule": "COc1ccc(Nc2nc(N3CCCCC3)nc(N3CCCCC3)n2)cc1", "note": "[VIRADEM-11041, (4,6-Dipiperidine-1-yl-[1,3,5]triazin-2-yl)-(4-methoxyphenyl)-amine hydrochloride]", "IC50": "> 1000"}, {"molecule": "c1ccc(Oc2ccc(Nc3nc(N4CCOCC4)nc(N4CCOCC4)n3)cc2)cc1", "note": "[VIRADEM-10892, (4,6-Dimorpholin-4-yl-[1,3,5]triazin-2-yl)-(4-phenoxyphenyl)-amine hydrochloride]", "IC50": "> 1000"}, {"molecule": "Fc1ccc(Nc2nc(N3CCOCC3)nc(N3CCOCC3)n2)cc1Cl", "note": "[VIRADEM-10893, (3-Chloro-4-fluorophenyl)-(4,6-dimorpholin-4-yl-[1,3,5]triazin-2-yl)-amine hydrochloride]", "IC50": "> 1000"}, {"molecule": "CC(=O)Nc1ccc(Nc2nc(N3CCCC3)nc(N3CCCC3)n2)cc1", "note": "[VIRADEM-11510, N-[4-(4,6-Dipyrrolidin-1-yl-[1,3,5]triazin-2-ylamino)-phenyl]-acetamide hydrochloride]", "IC50": "> 1000"}, {"molecule": "Cc1cccc(N2C(N3CCOCC3)=NC(N)=NC2Nc2ccc(F)cc2)c1", "note": "(stereo not drawn) [VIRADEM-11787, N-(4-Fluorophenyl)-6-morpholin-4-yl-N^1-m-tolyl-[1,3,5]triazine-2,4-diamine hydrochloride]", "IC50": 360}, {"molecule": "COc1ccc(Nc2nc(N3CCOCC3)nc(N3CCOCC3)n2)cc1", "note": "[VIRADEM-10885, (4,6-Dimorpholin-4-yl-[1,3,5]triazin-2-yl)-(4-methoxyphenyl)-amine hydrochloride]", "IC50": "> 1000"}, {"molecule": "C1CCCN(c2nc(N3CCOCC3)nc(N3CCOCC3)n2)CC1", "note": "[VIRADEM-16523, 1-(4,6-Dimorpholin-4-yl-[1,3,5]triazin-2-yl)-azepane]", "IC50": "> 1000"}, {"molecule": "FC(F)(F)Oc1ccc(Nc2nc(N3CCOCC3)nc(N3CCOCC3)n2)cc1", "note": "[VIRADEM-10891, (4,6-Dimorpholin-4-yl-[1,3,5]triazin-2-yl)-(4-trifluoromethoxyphenyl)-amine hydrochloride]", "IC50": "> 1000"}, {"molecule": "CCOc1ccc(NC2N=C(N)N=C(N3CCOCC3)N2c2cccc(C)c2)cc1", "note": "(stereo not drawn) [VIRADEM-11794, N-(4-Ethoxyphenyl)-6-morpholin-4-yl-N^1-m-tolyl-[1,3,5]triazine-2,4-diamine hydrochloride]", "IC50": 270}, {"molecule": "NC1=NC(Nc2ccc3c(c2)OCO3)N(c2ccc(F)cc2)C(N2CCOCC2)=N1", "note": "(stereo not drawn) [VIRADEM-11674, N-Benzo[1,3]dioxol-5-yl-N^1-(4-fluorophenyl)-6-morpholin-4-yl-[1,3,5]triazine-2,4-diamine hydrochloride]", "IC50": 200}, {"molecule": "CCc1ccc(Nc2nc(N3CCOCC3)nc(N3CCOCC3)n2)cc1", "note": "[VIRADEM-10883, (4,6-Dimorpholin-4-yl-[1,3,5]triazin-2-yl)-(4-ethylphenyl)-amine hydrochloride]", "IC50": 990}, {"molecule": "CCOc1ccc(Nc2nc(N3CCOCC3)nc(N3CCOCC3)n2)cc1", "note": "[VIRADEM-9794, (4,6-Dimorpholin-4-yl-[1,3,5]triazin-2-yl)-(4-ethoxyphenyl)-amine hydrochloride]", "IC50": "> 1000"}, {"molecule": "c1coc(CNc2nc(N3CCOCC3)nc(N3CCOCC3)n2)c1", "note": "[VIRADEM-15234, (4,6-Dimorpholin-4-yl-[1,3,5]triazin-2-yl)-furan-2-ylmethylamine]", "IC50": "> 1000"}, {"molecule": "c1ccc(CN2CCN(c3nc(N4CCOCC4)nc(N4CCOCC4)n3)CC2)cc1", "note": "[VIRADEM-15199, 2-(4-Benzylpiperazin-1-yl)-4,6-dimorpholin-4-yl-[1,3,5]triazine]", "IC50": "> 1000"}, {"molecule": "Cc1ccccc1Nc1nc(N2CCOCC2)nc(N2CCOCC2)n1", "note": "[VIRADEM-12434, (4,6-Dimorpholin-4-yl-[1,3,5]triazin-2-yl)-o-tolyl-amine]", "IC50": "> 1000"}]}, {"system": "SARS-CoV-2 (WA1)", "assay": "microbe, parasite or virus in culture", "assay_type": "cell-based", "settings": "VIRADEM compounds, SARS-CoV-2(WA1) CPE assay, Round 2, concentration range 1000-0.05 nM, Vero E6; read-out: IC50", "units": {"IC50": "nM"}, "values": [{"molecule": "Cc1ccc(Nc2nc(N3CCOCC3)nc(N(C)c3ccccc3)n2)cc1C", "note": "[VIRADEM-15168, N-(3,4-Dimethylphenyl)-N^1-methyl-6-morpholin-4-yl-N^1-phenyl-[1,3,5]triazine-2,4-diamine]", "IC50": 180}, {"molecule": "COc1ccc(Nc2nc(Nc3cccc4ccccc34)nc(N3CCOCC3)n2)cc1", "note": "[VIRADEM-15262, N-(4-Methoxyphenyl)-6-morpholin-4-yl-N^1-naphthalen-[1,3,5]triazine-2,4-diamine]", "IC50": 440}, {"molecule": "Cc1ccc(Nc2nc(Nc3ccc(C(C)C)cc3)nc(N3CCOCC3)n2)cc1", "note": "[VIRADEM-12253, N-(4-Isoproylphenyl)-6-morpholin-4-yl-N^1-p-tolyl-[1,3,5]triazine-2,4-diamine hydrochloride]", "IC50": 510}, {"molecule": "Cc1cc(C)cc(Nc2nc(Nc3ccc(Cl)c(Cl)c3)nc(N3CCOCC3)n2)c1", "note": "[VIRADEM-11759, N-(3,4-Dichlorophenyl)-N^1-(3,5-dimethyphenyl)-6-morpholin-4-yl-[1,3,5]triazine-2,4-diamine]", "IC50": 350}, {"molecule": "Cc1ccc(S(=O)(=O)NNc2nc(N3CCOCC3)nc(N3CCOCC3)n2)cc1", "note": "[VIRADEM-15295, N-(4,6-Dimorpholin-4-yl-[1,3,5]triazin-2-yl)-N^1-tozylhydrazin]", "IC50": "> 1000"}, {"molecule": "COC(=O)c1ccc(Nc2nc(N3CCOCC3)nc(N3CCOCC3)n2)cc1", "note": "[VIRADEM-10890, 4-(4,6-Dimorpholin-4-yl-[1,3,5]triazin-2-ylamino-benzoic acid methyl ester hydrochloride]", "IC50": "> 1000"}, {"molecule": "Cc1ccc(Nc2nc(N3CCOCC3)nc(N3CCCc4ccccc43)n2)cc1C", "note": "[VIRADEM-15278, [4-(3,4-Dihydro-2-H-quinolin-1-yl)-6-morpholin-4-yl-[1,3,5]triazin-2-yl]-(3,4-dimethylphenyl)-amine]", "IC50": 120}, {"molecule": "c1ccc(CCNc2nc(N3CCOCC3)nc(N3CCOCC3)n2)cc1", "note": "[VIRADEM-15230, (4,6-Dimorpholin-4-yl-[1,3,5]triazin-2-yl)-phenetylamine]", "IC50": 460}]}]}
